Data reported in US10759796B2, “CXCR4 inhibitors and uses thereof” (X4 Pharmaceuticals, Inc., priority 2016, dated 2020).

Test: Pharmacokinetics after intravenous or oral administration to dogs
Type: in vivo
Details: male, beagle, plasma, dog
Protocol: Example 32: Pharmacokinetics of Compounds After Intravenous or Oral Administration to Male Beagle Dogs
The study design (9 animals, fasted overnight and fed at 4 h post dosing) consists of administrating the drug [IV: 1 mg/kg via cephalic vein injection], [PO: 3 mg/kg and 10 mg/kg via oral gavage] and collecting samples at serial bleeding for plasma at 0.03, 0.08, 0.25, 0.5, 1, 2, 4, 8, 24, 48 and 72 hr. The IV and PO dosing solutions were prepared in 50 mM citrate buffer (pH 4.0) at 0.5 mg/mL, 1.5 mg/mL and 5 mg/mL, respectively. The blood collection was performed as follows: the animals were restrained manually, and approx. 0.5 mL blood/time point was collected from the cephalic vein into pre-cooled K2EDTA tubes. Blood samples were put on wet ice and centrifuged at 4° C. to obtain plasma within 15 minutes of sample collection. All samples were stored at approximately −70° C. until analysis.
Plasma Samples Preparation:
An aliquot of 30 μL sample was added to 100 MeCN containing 200 ng/mL IS (Dexamethasone). The mixture was vortexed for 10 min and centrifuged at 5,800 rpm for 10 min. An aliquot of 30 μL supernatant was added to 60 μL H2O and the mixture was vortexed for 5 min. An aliquot of 4 μL supernatant was injected for LC-MS/MS analysis.
The sample analysis was performed using UPLC-MS/MS-02 (Triple Quad 4000) under the following conditions: positive ion, ESI, MRM detection using dexamethasone as internal standard. HPLC conditions: mobile phase A: H2O-0.1% FA, mobile phase B: ACN-0.1% FA on ACQUITY UPLC HSS T3 (2.1×50 mm, 1.8 μm) column at 60° C.

SMILES: CN1CCN(c2cccc3nc([C@H]4CCC[C@@H](c5ncccc5Cl)N4)cn23)CC1 (single isomer, unassigned) [Compound I-188]
- clearance (IV: 1 mg/kg): 19.8 mL/min/kg
- half-life (IV: 1 mg/kg): 27.3 h
- Vd (IV: 1 mg/kg, read-out: Vss): 39 L/kg
- Cmax (PO: 3 mg/kg): 46.1 ng/mL
- bioavailability (PO: 3 mg/kg): 65%
- half-life (PO: 3 mg/kg): 27.3 h
- Cmax (PO: 10 mg/kg): 280 ng/mL
- bioavailability (PO: 10 mg/kg): 97.8%
- half-life (PO: 10 mg/kg): 23.2 h
- AUC (IV: 1 mg/kg): 722 ng·h/mL
- AUC (PO: 3 mg/kg): 1420 ng·h/mL
- AUC (PO: 10 mg/kg): 7500 ng·h/mL
